Source: patent publication US8658668B2, “PI3 kinase/mTOR dual inhibitor” (Eli Lilly and Company, priority 2011, dated 2014)

Key:
[1] = system: MAXF 401 human tumor xenograft cells; assay: Oncotest tumor clonogenic assay, MAXF 401; type: cell-based; details: MAXF401, colony formation, Mammary MAXF 401, pap. adeno carcinoma, wd, read-out: Absolute IC50
[2] = system: p110α(E545K)/myc leukemic cells; assay: E545Kp110a leukemia model; type: in vivo, mouse; details: oral gavage, day 5 through day 11, blood on day 12
Text: Leukemia cell line creation: Transduce embryonic liver cells derived from transgenic embryos, B6.Cg-Tg[IghMyc]22Bri/J (Jackson Laboratory, Bar Harbor, Me.), with a retrovirus expressing a clinically-isolated activating mutation of human p110α (E545K as an amino acid change, G1633A on the nucleotide level) under control of the viral 5′ LTR (long terminal repeat) and expressing GFP (green fluorescent protein) under control of the PGK promoter (MSCV6 FLAG-p110α G1633A PGK/GFP) to create target-driven leukemia cells. Transfer the transduced cells into a lethally irradiated host animal. The transduced cells repopulate the hematopoietic stem cells among bone marrow of the recipient and rescue the recipient animal from radiation-induced lethality due to ablation of the recipient's original bone marrow. Observe the rescued primary animals for development of leukemia via weekly monitoring white blood cell counts in a small amount of blood (10 μL) collected retro-orbitally. Collect blood from primary irradiated animals with confirmed leukemia and serially passage to secondary (non-irradiated) host animals in order to establish as a leukemic cell line.
Subject Animals: Use female C57BL/6 mice (Taconic, Cambridge City, Ind.), 8 to 10 week old and 20 to 22 g in weight, as leukemia recipient animals. Acclimate animals on normal low fat diet (4.5%) prior to inoculation and continue on that diet ad libitum for the duration of the study. Identify individual mice from each group by ear punches. Inoculate animals with leukemic cells from donor animals (day 0).
Syngeneic leukemia model: From a donor animal previously inoculated with the leukemic cell line of interest, collect a small amount of blood retro-orbitally (10 μL) and measure the leukemia cell burden by white blood cell count. From animals with sufficient leukemic burden, collect donor blood, dilute with phosphate-buffered saline (PBS) to 500,000 white blood cells per 200 μL and inject 200 μL per animal retro-orbitally on day 0 to initiate leukemia. […]

[3] = system: 786-O; assay: Cell proliferation assay (CellTiter-Glo), 786-O; type: cell-based; details: Homo sapiens, 786-0, 72 h
Method: Plate cells in a 96-well plate at 2000 cells/well in 100 μL of cell specific medium (for U87MG use DMEM, 10% FBS, 25 mM 4-(2-hydroxyethyl)-1-piperazineethanesulfonic acid (HEPES), 1.0 mM sodium pyruvate, and 0.1 mM Non Essential Amino Acids (ATCC Cat.#30-2002); for HT1080 use Eagle's MEM, 10% FBS (ATCC Cat.#30-2003); for H1975, A2780, SJSA-1 and 786-O use RPMI 1640, 10% FBS (ATCC Cat.#30-2001); for A204 use McCoy's 5A, 10% FBS (ATCC Cat.#30-2007) except in column 1 use medium only as the blank control. Incubate the plates overnight at 37° C. and 5% CO2. On the next day, prepare compound stocks at 1 mM in DMSO and serially dilute in DMSO in a 96-well round bottom polypropylene plate. Assay compounds at 10 concentrations in duplicate, 4 compounds per plate.
Transfer 4 μL of the DMSO serial dilutions to a 96 well plate and add 196 μL of culture medium to create a 10× stock for dosing. Gently transfer 11 μL of each dosing stock to the corresponding well of the cell plate resulting in a 0.2% DMSO concentration and a 111 μL final volume. […]
Prepared the CellTiter-Glo reagent (Promega, Cat: G7571) and add 100 µL to each well after the incubation is complete, homogenize the cells by mixing on an orbital shaker for 2 min and then incubate at RT for 10 min to allow the luminescent signal to stabilize. Record the luminescent raw data with a Wallac Victor V plate reader. […]

[4] = system: MEXF 1539 human tumor xenograft cells; assay: Oncotest tumor clonogenic assay, MEXF 1539; type: cell-based; details: colony formation, Melanoma MEXF 1539, amelanotic melanoma, md, read-out: Absolute IC50
[5] = system: CXF 1783 human tumor xenograft cells; assay: Oncotest tumor clonogenic assay, CXF 1783; type: cell-based; details: colony formation, Colon CXF 1783, colon carcinoma, wd, read-out: Absolute IC50
[6] = system: MAXF 1384 human tumor xenograft cells; assay: Oncotest tumor clonogenic assay, MAXF 1384; type: cell-based; details: colony formation, Mammary MAXF 1384, adeno carcinoma, pd, read-out: Absolute IC50
[7] = system: RXF 1220 human tumor xenograft cells; assay: Oncotest tumor clonogenic assay, RXF 1220; type: cell-based; details: colony formation, Renal RXF 1220, hypernephroma, pd, read-out: Absolute IC50
[8] = system: RXF 486 human tumor xenograft cells; assay: Oncotest tumor clonogenic assay, RXF 486; type: cell-based; details: colony formation, Renal RXF 486, hypernephroid adeno carcinoma, clear cell, read-out: Absolute IC50
[9] = system: SXF 1186 human tumor xenograft cells; assay: Oncotest tumor clonogenic assay, SXF 1186; type: cell-based; details: colony formation, Sarcoma SXF 1186, osteoblastic osteosarcoma, md, read-out: Absolute IC50
[10] = system: HNXF 908 human tumor xenograft cells; assay: Oncotest tumor clonogenic assay, HNXF 908; type: cell-based; details: colony formation, Head and Neck HNXF 908, squamous epithelium carcinoma, md, read-out: Absolute IC50
[11] = system: PXF 1752 human tumor xenograft cells; assay: Oncotest tumor clonogenic assay, PXF 1752; type: cell-based; details: colony formation, Pleuramesothelioma PXF 1752, pleuramesothelioma, read-out: Absolute IC50

- IC50 [1]: 150 nM
- IC50 [3]: 126 nM
- IC50 [4]: 246 nM
- IC50 [5]: 29 nM
- IC50 [6]: 243 nM
- IC50 [7]: 191 nM
- IC50 [8]: 112 nM
- IC50 [9]: 110 nM
- IC50 [10]: 52 nM
- IC50 [11]: 32 nM
Structure (SMILES): CO[C@@H](C)Cn1c(=O)n(C)c2cnc3ccc(-c4cncc(C(C)(C)O)c4)cc3c21 [Example 1, 8-[5-(1-Hydroxy-1-methylethyl)pyridin-3-yl]-1-[(2S)-2-methoxypropyl]-3-methyl-1,3-dihydro-2H-imidazo[4,5-c]quinolin-2-one]
- % TGI ([2]; 5 mg/kg qd): 50.5%
- % TGI ([2]; 10 mg/kg qd): 76.1%
- % TGI ([2]; 20 mg/kg qd): 90.1%
